Results published in ChEMBL document CHEMBL1201862, “PubChem BioAssay data set” (2004).
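1) Cells in 96-well plates. 2) Compound, 48 h, 5 concentrations. 3) Linear interpolation between surrounding doses. 4) Unreached endpoint = highest concentration. At the GI50, growth is halved.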 Activity calls are given as the source filed them. Rule as the data show it: active = GI50 up to about 1.1 µM and inactive = higher.

Experiments:
Assay in all cases: NCI anticancer screen, dose series, 48 h
[1] = test system: HCT-15
[2] = test system: OVCAR-8
[3] = test system: OVCAR-5
[4] = test system: ACHN
[5] = test system: SK-MEL-5
[6] = test system: SF-268
[7] = test system: KM12
[8] = test system: NCI-H226
[9] = test system: PC-3
[10] = test system: EKVX
[11] = test system: UACC-62
[12] = test system: RPMI-8226
[13] = test system: HL-60
[14] = test system: MOLT-4
[15] = test system: SK-MEL-28
[16] = test system: K562
[17] = test system: SR
[18] = test system: MDA-N
[19] = test system: HT-29
[20] = test system: OVCAR-4

Row | SMILES | GI50 [1] | GI50 [2] | GI50 [3] | GI50 [4] | GI50 [5] | GI50 [6] | GI50 [7] | GI50 [8] | GI50 [9] | GI50 [10] | GI50 [11] | GI50 [12] | GI50 [13] | GI50 [14] | GI50 [15] | GI50 [16] | GI50 [17] | GI50 [18] | GI50 [19] | GI50 [20]
1 | O=C(O)CNC(=O)c1ccc(-c2ccccc2)cc1 | > 100 µM | > 100 µM (inactive) | > 100 µM (inactive) | > 100 µM (inactive) | > 100 µM (inactive) | > 100 µM (inactive) | > 100 µM (inactive) | > 100 µM (inactive) | > 100 µM (inactive) | > 100 µM (inactive) | > 100 µM (inactive) | > 100 µM (inactive) | > 100 µM (inactive) | > 100 µM (inactive) | > 100 µM (inactive) | > 100 µM (inactive) | > 100 µM (inactive) | > 100 µM (inactive) |  | 
2 | COc1cc2c(cc1OC)C(=O)/C(=C/c1ccccc1)CC2 | 20.8 µM | 45.5 µM (inactive) | 27.4 µM (inactive) | 53.5 µM (inactive) | 17.1 µM (inactive) | 46.7 µM (inactive) | 14.4 µM (inactive) | 41.4 µM (inactive) | 42.5 µM (inactive) | 56.1 µM (inactive) |  | 23.4 µM (inactive) | 0.0426 µM (active) | 18.1 µM (inactive) | 64.9 µM (inactive) | 34.4 µM (inactive) | 13.5 µM (inactive) | 12.4 µM (inactive) | 17.9 µM (inactive) | 62.4 µM (inactive)
3 | COC(=O)[C@@H]1CN(C(C)=O)C(=O)N1C(=O)OCc1ccccc1 | > 100 µM | > 100 µM (inactive) | > 100 µM (inactive) | > 100 µM (inactive) | > 100 µM (inactive) | 59.2 µM (inactive) | > 100 µM (inactive) | > 100 µM (inactive) | > 100 µM (inactive) | > 100 µM (inactive) |  | > 100 µM (inactive) | > 100 µM (inactive) | > 100 µM (inactive) | > 100 µM (inactive) | > 100 µM (inactive) | > 100 µM (inactive) | > 100 µM (inactive) | > 100 µM (inactive) | > 100 µM (inactive)
4 | O=c1c(SSc2coc3cc(F)ccc3c2=O)coc2cc(F)ccc12 | 13.8 µM | 7.78 µM (inactive) | 37.8 µM (inactive) | 6.92 µM (inactive) | 13.7 µM (inactive) | 26.3 µM (inactive) | 8.95 µM (inactive) | > 100 µM (inactive) | 7.82 µM (inactive) | 21.1 µM (inactive) | 16.1 µM (inactive) | 22.3 µM (inactive) | 8.59 µM (inactive) | 7.31 µM (inactive) | 5.58 µM (inactive) | 19.9 µM (inactive) | 31.3 µM (inactive) | 13.5 µM (inactive) | 15.3 µM (inactive) | 
5 | CC(C)CCn1c(=O)c2c(=O)[nH][nH]c2c2ccccc21 | > 100 µM | > 100 µM (inactive) | > 100 µM (inactive) | > 100 µM (inactive) | > 100 µM (inactive) |  | > 100 µM (inactive) | > 100 µM (inactive) | > 100 µM (inactive) | > 100 µM (inactive) |  | > 100 µM (inactive) | > 100 µM (inactive) | > 10 µM (inactive) | > 100 µM (inactive) | > 100 µM (inactive) | > 100 µM (inactive) | > 100 µM (inactive) | > 100 µM (inactive) | > 100 µM (inactive)
6 | CO/C(=N\N=C\c1ccc(Cl)cc1Cl)c1ccncc1 | > 10 µM | > 10 µM (inactive) | > 10 µM (inactive) | > 10 µM (inactive) |  | > 10 µM (inactive) | > 10 µM (inactive) | > 10 µM (inactive) | > 10 µM (inactive) | > 10 µM (inactive) |  | 6.24 µM (inactive) | > 10 µM (inactive) | > 10 µM (inactive) |  | > 10 µM (inactive) | > 10 µM (inactive) | 4.51 µM (inactive) | > 10 µM (inactive) | > 10 µM (inactive)
